# Data reported in paper PMC12638379, “An innovative approach to development of new pyrazolylquinolin-2-one hybrids as dual EGFR and BRAF^V600E inhibitors” (Molecular Diversity, 2025).
# Like-named read-outs stand apart in the source and are kept apart here.
# Assays:
# NCI 60 cancer cell lines = assay: NCI anticancer screening over a panel of 60 cancer cells, single concentration 10 µM; type: cell-based, human; conditions: Homo sapiens, read-out: % Growth Inhibition (GI %)
# In short: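 Primary single-dose screen at 10 µM over the NCI panel of 60 human tumour cell lines (leukemia, CNS, lung, colon, kidney, ovary, breast, prostate). The standard NCI Developmental Therapeutics Program protocol was used.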
# EGFR = target: T1, EGFR (Homo sapiens, UniProt P00533); assay: EGFR inhibitory assay; type: biochemical; conditions: for %inh: EGFR, unit not given
# T1 construct: EGFR cytoplasmic domain (EGFR-CD, amino acids 645–1186); His6 (N); made in house; host or cells: Sf-9 insect cells (baculovirus)
# [1] = test system: leukemia (MOLT-4) cell line; assay: MTT antiproliferative assay, MOLT-4; type: cell-based, human
# Method: After 24 h of culture incubation and supernatants discarded.
# T1 sequence (P00533 669-1210): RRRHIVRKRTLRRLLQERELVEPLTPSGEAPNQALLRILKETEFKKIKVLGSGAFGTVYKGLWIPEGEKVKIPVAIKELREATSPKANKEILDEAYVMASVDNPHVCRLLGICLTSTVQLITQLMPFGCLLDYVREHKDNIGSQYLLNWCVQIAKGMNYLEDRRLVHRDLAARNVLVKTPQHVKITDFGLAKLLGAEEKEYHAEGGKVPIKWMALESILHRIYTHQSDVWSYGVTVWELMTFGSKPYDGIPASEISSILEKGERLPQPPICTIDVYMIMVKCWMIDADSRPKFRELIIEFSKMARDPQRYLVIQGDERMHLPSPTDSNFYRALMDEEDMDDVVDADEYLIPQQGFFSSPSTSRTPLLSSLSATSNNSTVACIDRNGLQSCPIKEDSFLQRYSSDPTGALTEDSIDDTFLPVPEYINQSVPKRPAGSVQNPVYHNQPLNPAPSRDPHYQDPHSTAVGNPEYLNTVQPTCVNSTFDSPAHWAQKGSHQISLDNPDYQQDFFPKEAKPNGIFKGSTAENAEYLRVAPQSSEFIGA
structure (smiles),measurement,setting,value
"C/C(=N\Nc1ccc(S(N)(=O)=O)cc1)c1cnn(-c2cc(=O)[nH]c3ccc(Cl)cc23)c1C [Compound 4d, (E)-4-(2-(1-(1-(6-chloro-2-oxo-1,2-dihydroquinolin-4-yl)-5-methyl-1H-pyrazol-4-yl)ethylidene)hydrazineyl)benzenesulfonamide]",inhibition at 10 µM,"NCI 60 cancer cell lines; MOLT-4, Leukemia MOLT-4, 10 μM",34.3%
same,inhibition at 10 µM,"NCI 60 cancer cell lines; Melanoma M14, 10 μM",20.7%
same,inhibition at 10 µM,"NCI 60 cancer cell lines; Melanoma MALM-3M, 10 μM",44.5%
same,inhibition at 10 µM,"NCI 60 cancer cell lines; NCI-H23, Non-small cell lung cancer NCI-H23, 10 μM",16.9%
same,inhibition at 10 µM,"NCI 60 cancer cell lines; NCI-H226, Non-small cell lung cancer NCI-H226, 10 μM",17.6%
same,inhibition at 10 µM,"NCI 60 cancer cell lines; NCI-H322M, Non-small cell lung cancer NCI-H322M, 10 μM",8.41%
same,inhibition at 10 µM,"NCI 60 cancer cell lines; NCI-H460, Non-small cell lung cancer NCI-H460, 10 μM",6.52%
same,inhibition at 10 µM,"NCI 60 cancer cell lines; NCI-H522, Non-small cell lung cancer NCI-H522, 10 μM",44.8%
same,inhibition at 10 µM,"NCI 60 cancer cell lines; NCI/ADR-RES, Ovarian cancer NCI/ADR-RES, 10 μM",5.85%
same,inhibition at 10 µM,"NCI 60 cancer cell lines; OVCAR-3, Ovarian cancer OVCAR-3, 10 μM",23.4%
same,inhibition at 10 µM,"NCI 60 cancer cell lines; OVCAR-4, Ovarian cancer OVCAR-4, 10 μM",24.2%
same,inhibition at 10 µM,"NCI 60 cancer cell lines; OVCAR-5, Ovarian cancer OVCAR-5, 10 μM",11.5%
same,inhibition at 10 µM,"NCI 60 cancer cell lines; OVCAR-8, Ovarian cancer OVCAR-8, 10 μM",6.15%
same,inhibition at 10 µM,"NCI 60 cancer cell lines; Prostate cancer PC-3, 10 μM",18.5%
same,inhibition at 10 µM,"NCI 60 cancer cell lines; RPMI-8226, Leukemia RPMI-8226, 10 μM",15.7%
same,inhibition at 10 µM,"NCI 60 cancer cell lines; RXF 393, Renal cancer RXF 393, 10 μM",< 5%
same,inhibition at 10 µM,"NCI 60 cancer cell lines; SF-268, CNS Cancer SF-268, 10 μM",28.7%
same,inhibition at 10 µM,"NCI 60 cancer cell lines; SF-295, CNS Cancer SF-295, 10 μM",9.48%
same,inhibition at 10 µM,"NCI 60 cancer cell lines; SF-539, CNS Cancer SF-539, 10 μM",33%
same,inhibition at 10 µM,"NCI 60 cancer cell lines; SK-MEL-2, Melanoma SK-MEL-2, 10 μM",27.2%
same,inhibition at 10 µM,"NCI 60 cancer cell lines; SK-MEL-5, Melanoma SK-MEL-5, 10 μM",21.8%
same,inhibition at 10 µM,"NCI 60 cancer cell lines; SK-MEL-28, Melanoma SK-MEL-28, 10 μM",24.7%
same,inhibition at 10 µM,"NCI 60 cancer cell lines; SK-OV-3, Ovarian cancer SK-OV-3, 10 μM",24.1%
same,inhibition at 10 µM,"NCI 60 cancer cell lines; SN12C, Renal cancer SN12C, 10 μM",27%
same,inhibition at 10 µM,"NCI 60 cancer cell lines; SNB-19, CNS Cancer SNB-19, 10 μM",24.9%
same,inhibition at 10 µM,"NCI 60 cancer cell lines; SNB-75, CNS Cancer SNB-75, 10 μM",35.4%
same,inhibition at 10 µM,"NCI 60 cancer cell lines; SW-620, Colon cancer SW-620, 10 μM",7.13%
same,inhibition at 10 µM,"NCI 60 cancer cell lines; T47D, Breast cancer T-47D, 10 μM",54%
same,inhibition at 10 µM,"NCI 60 cancer cell lines; TK-10, Renal cancer TK-10, 10 μM",< 5%
same,inhibition at 10 µM,"NCI 60 cancer cell lines; U-251, CNS Cancer U251, 10 μM",26.3%
same,inhibition at 10 µM,"NCI 60 cancer cell lines; UACC-62, Melanoma UACC-62, 10 μM",41.8%
same,inhibition at 10 µM,"NCI 60 cancer cell lines; UACC-257, Melanoma UACC-257, 10 μM",4.52%
same,inhibition at 10 µM,"NCI 60 cancer cell lines; UO-31, Renal cancer UO-31, 10 μM",37.7%
same,%inh,EGFR; conc 0.01 (log -2),27.8%
same,%inh,EGFR; conc 0.1 (log -1),40.6%
same,%inh,EGFR; conc 1 (log 0),72.7%
same,%inh,EGFR; conc 10 (log 1),86.9%
same,%inh,EGFR; conc 100 (log 2),93.7%
same,IC50,EGFR; read-out: EGFR inhibition IC50 ± SEM,156 ± 6 nM
same,viability at 0.4 µM,"[1]; Homo sapiens, MOLT-4, MOLT-4, MTT, 0.4uM",69.9%
same,viability at 1.6 µM,"[1]; Homo sapiens, MOLT-4, MOLT-4, MTT, 1.6uM",62.7%
same,viability at 6.3 µM,"[1]; Homo sapiens, MOLT-4, MOLT-4, MTT, 6.3uM",51.6%
same,viability at 25 µM,"[1]; Homo sapiens, MOLT-4, MOLT-4, MTT, 25uM",40.9%
same,viability at 100 µM,"[1]; Homo sapiens, MOLT-4, MOLT-4, MTT, 100uM",30.2%
same,IC50,"[1]; Homo sapiens, MOLT-4, MTT, read-out: Antiproliferative activity IC50 ± SEM, MOLT-4",7.24 ± 0.29 µM
same,% viability,"[1]; MOLT-4, MTT, 0.4uM, listed as Ws4, 0.4 µM",69.89%
same,% viability,"[1]; MOLT-4, MTT, 1.6uM, listed as Ws4, 1.6 µM",62.75%
same,% viability,"[1]; MOLT-4, MTT, 25uM, listed as Ws4, 25 µM",40.91%
same,% viability,"[1]; MOLT-4, MTT, 100uM, listed as Ws4, 100 µM",30.23%
